Experimental data taken from patent publication US20240083846A1, “SMAC MIMETICS FOR TREATMENT OF CANCER, PROCESS FOR PREPARATION AND PHARMACEUTICAL COMPOSITION THEREOF” (COUNCIL OF SCIENTIFIC & INDUSTRIAL RESEARCH, priority 2020, published 2024).
Where two headings read alike, the source gives them in different places. Where a SMILES comes first, the peptide text is derived from it. [ ]: non-standard residue; d: D form. The star is where a group is joined. Pro(5R-(5-methylfur-2-yl)) = Cc1ccc([C@H]2CC[C@@H](C(=O)O)N2)o1; NHCHPh2 = c1ccc(C(N*)c2ccccc2)cc1; Chg = N[C@H](C(=O)O)C1CCCCC1; NMeA = CN[C@@H](C)C(=O)O; OBn = c1ccc(CO*)cc1

Experiments:
HT29 cells = experiment: SRB cytotoxicity assay, HT29; type: cell-based; settings: for inhibition at 10 µM: Homo sapiens, read-out: In vitro cytotoxicity at 10 μM dose, HT29 (percent growth inhibition)
Method: (§1) In vitro cytotoxic activities of different compounds were assessed by using standard SRB assay in different cells. The absorbance of the treated and untreated cells was measured on a multi-well scanning spectrophotometer (Epoch Microplate Reader, Biotek, USA) at a wavelength of 510 nm. Percent growth inhibition was calculated by using the formula […].

[1] = SRB cytotoxicity assay, VERO; type: cell-based, monkey; settings: monkey
Method: as §1

HCT 116 cells = experiment: SRB cytotoxicity assay, HCT 116; type: cell-based; settings: Homo sapiens, read-out: In vitro cytotoxicity at 10 μM dose, HCT 116 (percent growth inhibition)
Method: as §1

XIAP BIR3 protein = XIAP BIR3 protein (Homo sapiens, UniProt P98170); experiment: Fluorescence polarization competition binding assay, XIAP BIR3
XIAP BIR3 protein, sequence (P98170 241-356 limits assumed): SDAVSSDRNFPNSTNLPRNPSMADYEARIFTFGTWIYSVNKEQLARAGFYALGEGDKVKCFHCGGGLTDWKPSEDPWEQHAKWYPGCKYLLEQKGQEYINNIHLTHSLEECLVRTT
Method: (§2) The SMAC mimetics 1-9 were tested for their ability to displace the fluorescent labeled peptide AVPIAQK(FAM)-OH from XIAP BIR2 or XIAP BIR3 protein. The dose dependent binding experiment were then carried out by sequentially increasing the concentration of SMAC mimetic compounds at constant concentration of fluorescent labeled peptide and XIAP BIR2 or XIAP BIR3 protein. IC5- values were determined from the plot draw by prism software using nonlinear least-squares analysis. The Ki values of the SMAC mimetics were calculated which was based upon the measured IC50 values, the Kd value between tracer AVPIAQK(FAM)-OH and XIAP BIR2 or XIAP BIR3 complex, and the concentrations of the protein and tracer in the competition assay by using the web based program which are freely accessed at http://sw16.im.med.umich.edu/software/calc_ki/.In-silico.
(§3) Binding isotherms were plotted between FP reading versus log values of protein concentration in nM. The data was analysed using GraphPad prism and Kd values were determined using Boltzmann-sigmoidal non-linear regression curve fitting.

SW 620 cells = experiment: SRB cytotoxicity assay, SW 620; type: cell-based; settings: for inhibition at 10 µM: Homo sapiens, read-out: In vitro cytotoxicity at 10 μM dose, SW 620 (percent growth inhibition)
Method: as §1

XIAP BIR2 protein = XIAP BIR2 protein (Homo sapiens, UniProt P98170); experiment: Fluorescence polarization competition binding assay, XIAP BIR2
XIAP BIR2 protein, sequence (P98170 124-240 limits assumed): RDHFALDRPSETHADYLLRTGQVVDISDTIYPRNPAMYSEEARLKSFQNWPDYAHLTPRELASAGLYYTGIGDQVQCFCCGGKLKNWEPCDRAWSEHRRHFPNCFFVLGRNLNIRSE
Method: as §2, §3

SW-620 xenograft = experiment: Cisplatin resistant SW-620 xenograft model; type: in vivo, nude Crl: CD1-Foxnlnu mice; settings: FIG. 7
Excerpt: All the animals were maintained in a pathogen-free facility under a day—night cycle.

[2] = HT-29, 10 μM, 48 hours, SRB assay
[3] = VERO cells, 10 μM, 48 hours, SRB assay, read-out: In vitro cytotoxicity at 10 μM dose, VERO (percent growth inhibition)
[4] = HCT-116, 10 μM, 48 hours, SRB assay
[5] = displacement of AVPIAQK(FAM)-OH, fluorescence polarization, read-out: Target Binding BIR3 Ki
[6] = SW-620, 10 μM, 48 hours, SRB assay
[7] = displacement of AVPIAQK(FAM)-OH, fluorescence polarization, read-out: Target Binding BIR2 Ki

SMILES	Ki (XIAP BIR3 protein; [5])	Ki (XIAP BIR2 protein; [7])	inhibition at 10 µM (HT29 cells; [2])	inhibition at 48 h, 10 μM [1, 3]	inhibition at 10 µM (HCT 116 cells; [4])	inhibition at 10 µM (SW 620 cells; [6])	other results
CN[C@@H](C)C(=O)N[C@H](C(=O)N1[C@@H](c2ccc(C)o2)CC[C@H]1C(=O)NC(c1ccccc1)c1ccccc1)C1CCCCC1 [Compound 8, (2S ,5R)-N-benzhydryl-1-((S)-2-cyclohexyl-2-((S)-2-(methylamino)propanamido)acetyl)-5-(5-methylfuran-2-yl)pyrrolidine-2-carboxamide]	0.73 µM	1.8 µM	66 ± 2.4%	39.4 ± 6.9%	48.5 ± 6.7%	38.7 ± 12.6%	
CC[C@H](C)[C@H](NC(=O)[C@@H]1CCCN1C(=O)[C@@H](NC(=O)[C@H](C)N)C(C)C)C(=O)O [Compound 1, L-alanyl-L-valyl-L-prolyl-L-isoleucine]							In vitro cytotoxicity at 10 μM dose, HT29 (percent growth inhibition) (HT29 cells; 10 μM, 48 hours, SRB assay): −0.01 ± 3.6%; In vitro cytotoxicity at 10 μM dose, SW 620 (percent growth inhibition) (SW 620 cells; 10 μM, 48 hours, SRB assay): 0.97 ± 2.3%
N.N.[Cl][Pt][Cl] [cisplatin, reference compound]							In vivo anti tumor efficacy (SW-620 xenograft): failed to deliver its effect
CC[C@H](C)[C@H](NC(=O)[C@@H]1CC[C@H](c2ccc(C)o2)N1C(=O)[C@@H](NC(=O)[C@H](C)NC)C1CCCCC1)C(=O)OCc1ccccc1 [Compound 7, (2S,3S)-benzyl 2-((2S,5R)-1-((S)-2-cyclohexyl-2-((S)-2-(methylamino)propanamido)acetyl)-5-(5-methylfuran-2-yl)pyrrolidine-2-carboxamido)-3-methylpentanoate] (H-[NMeA][Chg][Pro(5R-(5-methylfur-2-yl))]I-OBn)	1.42 µM	> 10 µM					inhibition at 10 µM (HT29 cells; HT-29, 48 h): 71.6 ± 10.2%; inhibition at 48 h, 10 μM [1]: 63.2 ± 5%; inhibition at 10 µM (HCT 116 cells; HCT-116, 48 h): 76.5 ± 2.3%; inhibition at 10 µM (SW 620 cells; SW-620, 48 h): 52.9 ± 22.4%
CC[C@H](C)[C@H](NC(=O)[C@@H]1CC[C@H](c2ccc(C)o2)N1C(=O)[C@@H](NC(=O)[C@H](C)NC)C1CCCCC1)C(=O)NC(c1ccccc1)c1ccccc1 [Compound 9, (2S,5R)-N-((2S ,3S)-1-(benzhydrylamino)-3-methyl-l-oxopentan-2-yl)-1-((S)-2-cyclohexyl-2-((S)-2-(methylamino)propanamido)acetyl)-5-(5-methylfuran-2-yl)pyrrolidine-2-carboxamide] (H-[NMeA][Chg][Pro(5R-(5-methylfur-2-yl))]I-NHCHPh2)							inhibition at 10 µM (HT29 cells; HT-29, 48 h): 72.7 ± 6.9%; inhibition at 48 h, 10 μM ([1]; 10 μM, 48 hours, SRB assay, read-out: In vitro cytotoxicity at 10 μM dose, VERO (percent growth inhibition)): 59.4 ± 11.7%; inhibition at 10 µM (HCT 116 cells; HCT-116, 48 h): 66.2 ± 15%; Ki (XIAP BIR3 protein): 0.79 µM; inhibition at 10 µM (SW 620 cells; SW-620, 48 h): 81.8 ± 3.3%; Ki (XIAP BIR2 protein): > 10 µM

More lines, main results first:

Ki (XIAP BIR3 protein; [5])	Ki (XIAP BIR2 protein; [7])	SMILES	inhibition at 10 µM (HT29 cells; [2])	inhibition at 48 h, 10 μM [1, 3]	inhibition at 10 µM (HCT 116 cells; [4])	inhibition at 10 µM (SW 620 cells; [6])	other results
4.38 µM	7.39 µM	CC[C@H](C)[C@H](NC(=O)[C@@H]1CC[C@H](c2ccc(C)o2)N1C(=O)[C@@H](NC(=O)[C@H](C)NC)C(C)C)C(=O)OCc1ccccc1 [Compound 4, (2S,3S)-benzyl 3-methyl-2-((2S,5R)-1-((S)-3-methyl-2-((S)-2-(methylamino)propanamido)butanoyl)-5-(5-methylfuran-2-yl)pyrrolidine-2-carboxamido)pentanoate]	12 ± 0.6%	4.54 ± 5.6%	-8.07 ± 6.6%	-4.1%	
0.23 µM	1.08 µM	Cc1ccc([C@H]2CC[C@@H](C(=O)NC(c3ccccc3)c3ccccc3)N2C(=O)[C@@H](NC(=O)[C@H](C)N)C(C)C)o1 [Compound 3, (2S,5R)-1-(L-alanyl-L-valyl)-N-benzhydryl-5-(5-methylfuran-2-yl)pyrrolidine-2-carboxamide]	-0.46 ± 2.2%	3.89 ± 3.4%	-2.6 ± 6.1%	1.44 ± 2.1%	
0.5 µM	3.25 µM	CN[C@@H](C)C(=O)N[C@H](C(=O)N1[C@@H](c2ccc(C)o2)CC[C@H]1C(=O)NC(c1ccccc1)c1ccccc1)C(C)C [Compound 5, (2S,5R)-N-benzhydryl-1-(methyl-L-alanyl-L-valyl)-5-(5-methylfuran-2-yl)pyrrolidine-2-carboxamide]	40.9 ± 5.3%	11.4 ± 1.1%	5.96 ± 1.2%	8.11 ± 11.3%	
> 10 µM	> 10 µM	CC[C@H](C)[C@H](NC(=O)[C@@H]1CC[C@H](c2ccc(C)o2)N1C(=O)[C@@H](NC(=O)[C@H](C)N)C(C)C)C(=O)OCc1ccccc1 [Compound 2, benzyl ((2S,5R)-1-(L-alanyl-L-valyl)-5-(5-methylfuran-2-yl)pyrrolidine-2-carbonyl)-L-isoleucinate]	-1.83 ± 5.5%	24.2 ± 22.7%	-7.06 ± 6.9%	7.88 ± 8%	
